Values belong to the compound of their own block, whether it stands above or below them.
Columns and labels:
[1] = target: T1, hyaluronidase bovine (EC 3.2.1.35) (Bos taurus, UniProt Q2YDK3); test: Hyaluronidase enzymatic activity inhibition (Experiment B); format: biochemical
T1 sequence (Q2YDK3 36-553): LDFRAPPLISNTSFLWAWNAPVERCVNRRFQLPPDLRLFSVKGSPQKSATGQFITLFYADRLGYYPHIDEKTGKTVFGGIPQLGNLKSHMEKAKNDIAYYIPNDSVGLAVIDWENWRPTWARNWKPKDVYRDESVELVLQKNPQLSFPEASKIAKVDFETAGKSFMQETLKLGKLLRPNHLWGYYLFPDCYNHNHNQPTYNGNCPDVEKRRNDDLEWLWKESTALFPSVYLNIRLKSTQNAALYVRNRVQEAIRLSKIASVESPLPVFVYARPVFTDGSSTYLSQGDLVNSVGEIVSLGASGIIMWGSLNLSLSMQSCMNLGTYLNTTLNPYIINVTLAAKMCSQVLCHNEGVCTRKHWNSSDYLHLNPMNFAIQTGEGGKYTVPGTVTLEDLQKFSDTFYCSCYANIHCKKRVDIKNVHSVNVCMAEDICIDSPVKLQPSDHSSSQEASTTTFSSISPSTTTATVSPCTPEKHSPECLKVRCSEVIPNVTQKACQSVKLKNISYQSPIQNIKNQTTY
Protocol: L'enzyme est la hyaluronidase bovine (EC 3.2.1.35), préparée tampon phosphate de sodium / chlorure de sodium / BSA, pH 7, et utilisée à 10 U/ml.
Le substrat est l'acide hyaluronique, préparé en tampon phosphate de sodium à pH 5,35 et testé à […].
Les principes actifs selon l'invention et la référence (acide 6-O-palmitoylascorbique, noté APA, testé à 300 µg/ml) sont mis en présence de la hyaluronidase et pré-incubés pendant 10 min à 37 °C sous agitation. L'acide hyaluronique est ensuite ajouté et les mélanges réactionnels sont incubés à 37 °C pendant 2 h. Des conditions contrôles sont réalisées en parallèle en incubant les principes actifs ou la référence en présence du substrat mais en absence de l'enzyme (Contrôle sans enzyme) ou en incubant les principes actifs ou la référence seuls (Contrôle interférence). Il est également réalisé un témoin en incubant l'enzyme seule (Témoin).
La réaction enzymatique est ensuite stoppée par précipitation de l'acide hyaluronique avec une solution tampon contenant de l'albumine de sérum bovin (BSA) à pH 3,75. […] L'activité est inversement proportionnelle à la valeur de DO mesurée.
(§1) Chaque expérience est tripliquée.
(§2) Les résultats sont exprimés en pourcentage d'activité de la hyaluronidase et en pourcentage d'inhibition de l'activité de la hyaluronidase. […]

[2] = Hydrogen peroxide assay (Amplex Red Hydrogen Peroxide/Peroxidase kit); details: hydrogen peroxide; 50 µM; 30 min
Description: (§3) Le principe actif E2 conforme à l'invention est soumis au test suivant, à des concentrations de 0,1; 0,3; 0,5; 1; 3 % p/p (% en poids de principe actif à tester, par rapport au poids final de milieu contenant le principe actif).
L'essai est réalisé au moyen du kit de dosage Amplex® Red Hydrogen Peroxyde/Peroxydase Assay Kit (Molecular Probes®), dont le réactif 10-acétyl-3,7-dihydroxyphénoxazine est utilisé pour déterminer la quantité de peroxyde d'hydrogène présent. Le substrat non coloré réagit avec le peroxyde d'hydrogène (H2O2) dans un rapport stoechiométrique 1:1 pour produire de la résofurine hautement fluorescente. […]
Le principe actif selon l'invention et le BHA (3-tert-butyl-4-hydroxyanisole), en tant que témoin, à une concentration de 50 µM, sont incubés en présence d'H2O2, de réactif Amplex® Red et d'enzyme Horse Radish Peroxydase (HRP) pendant 30 min à température ambiante. Puis la fluorescence est mesurée, pour une longueur d'onde d'excitation de 540 nm et une longueur d'onde d'émission de 590 nm.
Des contrôles d'auto-fluorescence et d'absorption de fluorescence (quenching) sont aussi réalisés pour chaque concentration de principe actif selon l'invention et du témoin. Les contrôles d'absorption de fluorescence sont réalisés en incubant le peroxyde d'hydrogène (H2O2), le réactif Amplex® Redet l'enzyme HRP pendant 30 min. […]

MMP totales = test: Total matrix metalloprotease (MMP) activity inhibition, fluorogenic peptide; format: biochemical, humains
Description: Le principe actif E2 conforme à l'invention est soumis au test suivant, à des concentrations de 1 et 3 % p/p, selon le protocole décrit dans la publication de Sim et al., 2007, Arch Pharm Res, 30(3): 290-298.
Les MMP totales (obtenues selon un protocole standard à partir de surnageants de fibroblastes dermiques humains normaux, irradiés avec des UVB (20 mJ/cm^2)) sont traitées par le mélange inflammatoire acétate de phorbol myristate (PMA) et facteur de nécrose tumorale (TNFα).
Le substrat fluorescent est le peptide fluorogénique décrit dans la publication de Lee et al., 1999, Annals of the New York Academy of Sciences, 878: 635-637, et commercialisé sous la référence M6412 par la société Sigma-Aldrich.
Le principe actif E2 conforme à l'invention ou le témoin (O-phénantroline testée à 0,03; 0,1; 0,3 et 1 mM) sont préincubés pendant 10 min sur glace en présence des MMP totales activées, puis le substrat fluorescent est ajouté. Les plaques ont été incubées pendant 3h à 37°C. Un contrôle d'interférence du composé (composé en présence du mélange réactionnel sans enzyme) et un contrôle « quenching » (mélange réactionnel contenant le substrat et l'enzyme dans lequel le composé n'est ajouté qu'en fin d'incubation) ont été réalisés en parallèle. Le contrôle […] permet de vérifier l'absorption non spécifique de la fluorescence par le composé et donc la spécificité de l'inhibition observée dans la condition test correspondante.
as §1
A la fin de l'incubation, la fluorescence produite suite à la dégradation du substrat est mesurée par fluorimétrie pour une longueur d'onde d'excitation de 328 nm et une longueur d'onde d'émission de 393 nm, au moyen du dispositif SpectroMax Gemini, Molecular Devices.
Le % d'inhibition des MMPs totales est calculé pour chaque échantillon testé. Les résultats obtenus sont montrés dans le tableau 6 ci-après. Tableau 6 - Inhibition de l'activité des MMP totales par le principe actif E2 conforme à l'invention

[3] = target: T2, hyaluronidase (EC 3.2.1.35) (Bos taurus, UniProt Q2YDK3); test: Hyaluronidase activity inhibition (Experiment A); format: biochemical
T2 sequence (Q2YDK3 36-553): T1 sequence (Q2YDK3 36-553)
Description: as §3
Le substrat est l'acide hyaluronique, testé à 0,04 % en tampon phosphate de sodium.
L'enzyme est la hyaluronidase (EC 3.2.1.35) testée à 10 U/ml en tampon phosphate de sodium / chlorure de sodium / BSA.
Le principe actif selon l'invention et les témoins (vitamine C à 10 mg/l et palmitate d'ascorbyle à 200 µg/ml) sont mis en présence de la hyaluronidase et incubés pendant 10 min à 37 °C sous agitation. L'acide hyaluronique est ensuite ajouté et les mélanges réactionnels sont incubés à 37 °C pendant 2 h. Des conditions contrôles additionnelles sont réalisées en incubant le produit et le substrat en l'absence de l'enzyme, ou en incubant le produit seul correspondant à un contrôle interférence. La réaction enzymatique est ensuite stoppée par précipitation de l'acide hyaluronique avec une solution d'albumine de sérum bovin (BSA). L'absorption (DO) à 540 nm est mesurée à l'aide d'un lecteur de microplaques (ThermoMax, Molecular Devices).
as §1, §2

- inhibition at 300 µg/mL [1]: 79%
- activity at 300 µg/mL ([1]; read-out: Activité hyaluronidase (%)): 21%
SMILES: CCCCCCCCCCCCCCCC(=O)OC[C@H](O)[C@H]1OC(=O)C(O)=C1O [APA, acide 6-O-palmitoylascorbique]

- inhibition at 200 µg/mL ([3]; 200 µg/ml): 80%
SMILES: CCCCCCCCCCCCCCCC(=O)OC[C@H](O)[C@H]1OC(=O)C(O)=C1O [Palmitate d'ascorbyle, palmitate d'ascorbyle]

- inhibition at 10000 µg/mL ([3]; 10 mg/ml): 71%
SMILES: O=C1O[C@H]([C@@H](O)CO)C(O)=C1O [Vitamine C]

Second part, the compound before the results:

SMILES: COc1ccc(O)c(C(C)(C)C)c1 [BHA, 3-tert-butyl-4-hydroxyanisole]
- % inhibition [2]: 60%

SMILES: c1cnc2c(c1)ccc1cccnc12 [O-Phénanthroline]
- % inhibition (MMP totales; 0,1 mM, 100 µM): 15%
- % inhibition (MMP totales; 0,03 mM, 30 µM): 1%
- % inhibition (MMP totales; 0,3 mM, 300 µM): 73%
- % inhibition (MMP totales; 1 mM): 97%
